The values that follow come from BindingDB's records for doi:10.1016/j.bmcl.2006.08.033 (University of Maryland, 2006).

In general, Ki refers to the equilibrium dissociation constant of an inhibitor or competing ligand from its target.

This test deals with Guanine deaminase (Oryctolagus cuniculus). Kind of test: Inhibition of rabbit liver guanase.

Each structure is given as a SMILES string.

In turn, `O=C1NC(CO)C(=O)Nc2c1ncn2Cc1ccccc1` (configuration not stated) [3-benzyl-4,5,7,8-tetrahydro-6-hydroxymethyl-6H-imidazo[4,5-e][1,4]diazepine-5,8-dione] registered an inhibitory constant (Ki) of 20.1 µM.
On to `O=C1NC(CO)C(=O)Nc2nc[nH]c21` (configuration not stated) [4,5,7,8-tetrahydro-6-hydroxymethyl-6H-imidazo[4,5-e][1,4]diazepine-5,8-dione], for which the Ki stood at 53.6 µM.
